Results reported in patent US9750757B2, “Methods of prevention or treatment for pathologic thrombosis or inflammation” (THOMAS JEFFERSON UNIVERSITY, priority 2013, dated 2017).
Entries after “also recorded” stand apart in the source; their conditions may differ.

Legend:
[1] = system: platelet rich plasma (PRP); assay: Light transmission aggregometry in platelet rich plasma, agonist-induced maximal aggregation (PRAX1); type: cell-based, human; settings: for Mean percent maximal aggregation, Black: PRP of black subjects; for Mean percent maximal aggregation, White: PRP of white subjects
Description: (1) Houston studies. A complete blood count and mean platelet volume were obtained using an ABX Micros 60 CS (Horiba ABX, Irvine, Calif., USA). Using light transmission aggregometry, maximal percent aggregation and slope of aggregation at 10 min in platelet rich plasma (PRP) treated with: 0.5 mg/ml arachidonic acid, 4 μM ADP, 1 μM and 2 μM PAR1 activating peptide (PAR1-AP), and 50 μM and 75 μM PAR4 activating peptide (PAR4-AP) were measured. (2) Philadelphia studies. Light transmission aggregometry of washed platelets was used to assess thrombin-induced platelet aggregation without or with a 2 min pre-incubation with 20 μM BMS-200261 (BMS, PAR1-specific antagonist) (Quinton et al., J. Biol. Chem. 2004, 279, 18434-18439). A difference in the efficacy of the PAR1 inhibitor was observed between the pilot and replicate studies, but validation of inhibitor activity was confirmed for both studies (FIG. 1B inset and FIG. 7E). For assessment of calcium mobilization, platelets were re-calcified to a final concentration of 1 mM followed by pre-incubation with Fluo-4 AM for 10 min. The platelets were then stimulated with PAR4-AP and calcium mobilization was measured using the Accuri C6 flow cytometer (Yeung et al., Mol. Pharmacol. 2012, 81, 420-430). In both Houston and Philadelphia, technical variation was minimized by use of the same highly-trained technicians, same lots of reagents and same instruments throughout the duration of the study. Because multiple concentrations were used to activate PAR1 and PAR4 to induce platelet aggregation, an integrated score was developed that combined these values to determine a single index that represented each individual's agonist response. This score correlated strongly with standard assessment of maximal percent aggregation, but inclusion of slope (which was a minor contributor to the overall score, and highly related to maximal aggregation) allowed distinction among platelets with the same maximal aggregation value. This score was highly reproducible in 10 subjects studied weekly for three or four weeks.

[2] = system: platelets, PAR1-AP-induced aggregation; assay: PAR1-AP-induced aggregation of washed platelets (light transmission aggregometry); type: cell-based; settings: washed human platelets incubated 30 min with inhibitor; sub-threshold concentrations of PAR1-AP
Description: (§1) The indicated concentrations of LDN-193,188 were incubated for 30 min with washed platelets and stimulated with sub-threshold concentrations of activating PAR peptides. […] Biol. Chem. 2004, 279, 18434-18439). […] For assessment of calcium mobilization, platelets were re-calcified to a final concentration of 1 mM followed by pre-incubation with Fluo-4 AM for 10 min. The platelets were then stimulated with PAR4-AP and calcium mobilization was measured using the Accuri C6 flow cytometer (Yeung et al., Mol. Pharmacol. 2012, 81, 420-430). In both Houston and Philadelphia, technical variation was minimized by use of the same highly-trained technicians, same lots of reagents and same instruments throughout the duration of the study. […] This score correlated strongly with standard assessment of maximal percent aggregation, but inclusion of slope (which was a minor contributor to the overall score, and highly related to maximal aggregation) allowed distinction among platelets with the same maximal aggregation value. This score was highly reproducible in 10 subjects studied weekly for three or four weeks.

PC-TP [3] = target: T1, PC-TP (Homo sapiens, UniProt Q9UKL6); settings: Wagel et al. 2008; cited from earlier work
T1 sequence (Q9UKL6 1-214): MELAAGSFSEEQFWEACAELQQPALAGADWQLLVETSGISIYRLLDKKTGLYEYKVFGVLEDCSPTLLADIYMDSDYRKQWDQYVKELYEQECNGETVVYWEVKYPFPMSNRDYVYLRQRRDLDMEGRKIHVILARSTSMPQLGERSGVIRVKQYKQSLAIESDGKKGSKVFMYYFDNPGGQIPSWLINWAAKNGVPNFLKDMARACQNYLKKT

PC-TP [4] = target: T1, PC-TP; settings: Shishova et al. 2011; cited from earlier work
[5] = system: platelets, PAR4-AP-induced aggregation; assay: PAR4-AP-induced aggregation of washed platelets (light transmission aggregometry); type: cell-based; settings: washed human platelets incubated 30 min with inhibitor; sub-threshold concentrations of PAR4-AP
Description: as §1

Compound: CCCCC/C=C\C/C=C\C/C=C\C/C=C\CCCC(=O)O [AA, arachidonic acid]
- Fold difference (Black/White) ([1]; 500 μg/ml AA): 0.99 fold
- Mean percent maximal aggregation, Black ([1]; 500 μg/ml AA): 86.57%
- Mean percent maximal aggregation, White ([1]; 500 μg/ml AA): 87.21%

Compound: Nc1ncnc2c1ncn2[C@@H]1O[C@H](COP(=O)(O)OP(=O)(O)O)[C@@H](O)[C@H]1O [ADP]
- Fold difference (Black/White) ([1]; 4 μM ADP): 0.91 fold
- Mean percent maximal aggregation, Black ([1]; 4 μM ADP): 40.89%
- Mean percent maximal aggregation, White ([1]; 4 μM ADP): 45.04%

Compound: Cc1cc(C)nc(NS(=O)(=O)c2ccc(NC(=O)NC(=O)c3ccc(Cl)cc3Cl)cc2)n1 [LDN-193,188, 2,4-dichloro-N-(4-(N-(4,6-dimethylpyrimidin-2-yl)sulfamoyl)phenylcarbamoyl)-benzamide]
- Effect on PAR1-AP-induced platelet aggregation [2]: does not block
- Phosphatidylcholine transfer activity of PC-TP (PC-TP [3]): inhibitor
- Displacement of phosphatidylcholine from PC-TP (PC-TP [4]): displaces phosphatidylcholine from the lipid binding pocket
- Thermal stability of PC-TP (PC-TP [4]): increases the thermal stability
- Effect on PAR4-AP-induced platelet aggregation [5]: prevented aggregation; also recorded: blocked; also recorded: does block
